Experimental findings from ChEMBL document CHEMBL5036363, “Discovery and Lead Optimization of Benzene-1,4-disulfonamides as Oxidative Phosphorylation Inhibitors” (J Med Chem, 2022) are described below.

Activity calls are given as the source filed them. No cut-off for these calls is given here.

Series [1] can be described thus: Inhibition of mitochondrial complex I in human HepG2 cells assessed as reduction in oxygen consumption rate incubated for 6 hrs by seahorse XF analyser based assay. Format: cell-based.
The subject of series [2] is MIA PaCa-2. In words: Cytotoxicity against human MIA PaCa-2 cells assessed as inhibition of cell growth incubated for 7 days in glucose-containing medium by MTT assay. The series is classed as functional, cell-based. The note with it: MIA PaCa-2, 168 h. In general terms: Formazan colour is commonly taken as a measure of viable cells.
In another series the test system is BXPC-3. In words: Cytotoxicity against human BXPC-3 cells assessed as inhibition of cell growth incubated for 7 days in glucose-containing medium by MTT assay. Format: functional, cell-based. Conditions: BXPC-3, 168 h.
For series [3], the system named is MIA PaCa-2. In words: Cytotoxicity against human MIA PaCa-2 cells assessed as inhibition of cell growth incubated for 3 days in glucose-containing medium by MTT assay. The note with it: MIA PaCa-2, 72 h. Format: functional, cell-based.
Series [4] concerns MIA PaCa-2. In words: Cytotoxicity against human MIA PaCa-2 cells assessed as inhibition of cell growth incubated for 3 days in galactose-containing medium by MTT assay. Format: functional, cell-based. Conditions: MIA PaCa-2, 72 h.
A short description of series [5]: Microsomal stability in human liver microsomes assessed as half life at 10 uM measured upto 60 mins by LC-MS/MS analysis. The series is classed as ADME, Microsome. Conditions: for t1/2: microsomes, 1 h, 10 µM; for half-life at 10 µM: liver microsomes.
Series [6] is described as follows: Microsomal stability in mouse liver microsomes assessed as half life at 10 uM measured upto 60 mins by LC-MS/MS analysis. Format: ADME, Microsome. The note with it: for t1/2: microsomes, 1 h, 10 µM.
Series [7] concerns MIA PaCa-2. Briefly: Inhibition of oxidative phosphorylation in human MIA PaCa-2 cells assessed as reduction in ATP production incubated for 24 hrs in glucose-containing medium by CellTiter-glo luminescence assay. Format: functional, cell-based. Background: ATP-based viability assays read luminescence as a measure of living cells.
Series [8] in a line: Inhibition of oxidative phosphorylation in human MIA PaCa-2 cells assessed as reduction in ATP production incubated for 24 hrs in galactose-containing medium by CellTiter-glo luminescence assay. Format: functional, cell-based. The note with it: MIA PaCa-2, 24 h.
A short description of series [9]: Inhibition of oxidative phosphorylation complex I in human MIA PaCa-2 cells assessed as reduction in NAD+/NADH ratio incubated for 48 hrs by NAD/NADH-Glo assay. Format: cell-based. The note with it: MIA PaCa-2, 48 h.
The next series has as its system NCI-H460. Briefly: Cytotoxicity against human NCI-H460 cells assessed as reduction in galactose-dependent cell viability incubated for 3 days by IncuCyte live-cell imaging assay. Format: functional, cell-based. Conditions: NCI-H460, 72 h.
The nature of series [10]: Inhibition of mitochondrial complex I (unknown origin) incubated for 20 hrs by Colorimetric assay.
The species named for the next series is Homo sapiens. In words: Inhibition of complex-I-dependent oxygen consumption in mitochondria of human PC-3 cells by luxcel-dye staining based MitoXpress method. Format: functional, cell-based.
Series [11] in a line: Inhibition of mitochondrial complex I in human pancreatic cancer cells assessed as reduction in oxygen consumption rate measured immediately by seahorse XFe96 analyser based assay. The note with it: pancreatic cancer cell.
Series [12] can be described thus: Cytotoxicity against human UM16 cells assessed as inhibition of cell growth. Format: functional, cell-based.
The nature of series [13]: Drug metabolism in mouse liver microsomes assessed as formation of de-ethylated diethyl-sulfonamide moiety metabolite at 10 uM measured after 7 to 30 mins by LC-MS/MS analysis. The series is classed as ADME, Microsome. The note with it: time 7-30 min. (In general: Microsomes from liver hold many membrane-bound enzymes, among them those of drug oxidation.)
Series [14] in a line: Drug metabolism in mouse liver microsomes assessed as formation of hydroxylated piperidine ring moiety metabolite at 10 uM measured after 7 to 30 mins by LC-MS/MS analysis. The series is classed as ADME, Microsome. Conditions: time 7-30 min.
For series [15], the system named is MIA PaCa-2. Briefly: Antitumor activity against human MIA PaCa-2 cells xenografted in C57BL/6 mouse syngeneic model assessed as tumor growth inhibition at 5 mg/kg, ip measured upto 28 days by digital caliper method. The series is classed as functional, organism-based. Conditions: time day <=28.
The nature of series [16]: Toxicity in C57BL/6 mouse xenografted with human MIA PaCa-2 cells assessed as body weight loss at 5 mg/kg, ip measured twice a week for 28 days. The series is classed as organism-based. The note with it: in vivo, 672 h, time 28 day.
A short description of series [17]: Kinetic aqueous solubility of the compound by turbidimetric method. The series is classed as physicochemical. The note with it: buffer.

Regarding `N=C(N)NC(=N)NCCc1ccccc1` [PHENFORMIN], the IC50 in [1] was found to be 3800 nM.

As for `CCN(CC)S(=O)(=O)c1ccc(S(=O)(=O)N2CCC[C@@H](C(=O)NC3COC3)C2)cc1`, the 50% inhibitory concentration (IC50) in the series with MIA PaCa-2 [2] is 2300 nM; in the series with BXPC-3, 13800 nM; in the series with MIA PaCa-2 [3] it was 900 nM; in the series with MIA PaCa-2 [4], > 10000 nM; in [8] it was 951 nM; in series [9] it was 1660 nM. Moreover, the t1/2 was found to be 18.5 min in [5] and 27.1 min in series [6]. In the series on MIA PaCa-2 [7], the inhibition entry was “inactive”.

As for `CC(C)c1noc(C2CCN(C(=O)[C@@H]3CCCN(S(=O)(=O)c4ccc(S(=O)(=O)C(C)C)cc4)C3)CC2)n1`, the IC50 in the series on MIA PaCa-2 [2] was 50 nM; with MIA PaCa-2 [3], 20 nM; in the series with MIA PaCa-2 [4], > 10000 nM; in series [8] it was 17.2 nM; in series [9], 7.1 nM. The half-life at 10 µM in series [5] is > 60 min. Further, the t1/2 in series [6] came to 32.58 min. The inhibition result in the series with MIA PaCa-2 [7] is “inactive”.

In the case of `Cc1nc(-c2nc(-c3ccc(OC(F)(F)F)cc3)no2)nn1Cc1cccc(N2CCC(S(C)(=O)=O)CC2)c1`, the IC50 in the series with NCI-H460 is 1.4 nM.

For the compound `CC(C)c1noc(N2CCN(C(=O)[C@@H]3CCCN(S(=O)(=O)c4ccc(S(=O)(=O)C(C)C)cc4)C3)CC2)n1`, the 50% inhibitory concentration (IC50) in the series on MIA PaCa-2 [2] is 70 nM; in the series with MIA PaCa-2 [4], > 10000 nM; in [8] it was 29.2 nM; in series [9], 30.4 nM. The half-life at 10 µM in series [5] and in series [6] (liver microsomes) was > 60 min each time. Also, in the series on MIA PaCa-2 [7], the inhibition entry is “inactive”.

In turn, `FC(F)(F)c1ccc(/C=C/c2nc(COc3ccc(CCCCn4ccnn4)cc3)co2)cc1` [MUBRITINIB] gave a concentration for half-maximal inhibition (IC50) in [10] of 51 nM.

Take `CCN(CC)C(=O)c1ccc(S(=O)(=O)N2CCC[C@@H](C(=O)N3CCN(c4nc(C(C)C)no4)CC3)C2)cc1`: the 50% inhibitory concentration (IC50) with MIA PaCa-2 [2] was 100 nM; with BXPC-3, 1400 nM; with MIA PaCa-2 [3], 70 nM; in the series with MIA PaCa-2 [4], > 10000 nM. In addition, the t1/2 worked out at 12.76 min in series [5] and 10.47 min in [6].

Turning to `Cc1cc(-c2nc(-c3ccc(OC(F)(F)F)cc3)no2)nn1Cc1ccnc(N2CCN(C3CC3)CC2)c1`, the concentration for half-maximal inhibition (IC50) in the series listed under Homo sapiens came to 10 nM.

In the case of `CC(C)NS(=O)(=O)c1ccc(S(=O)(=O)N2CCC[C@@H](C(=O)N3CCN(c4nc(C(C)C)no4)CC3)C2)cc1`, the IC50 in the series on MIA PaCa-2 [2] is 2600 nM; with BXPC-3, 2600 nM; in the series with MIA PaCa-2 [3], 200 nM; in the series with MIA PaCa-2 [4] it was > 10000 nM. The t1/2 in series [5] was 3.36 min; in series [6], 29.36 min.

On to `CN(C)C(=N)NC(=N)N` [METFORMIN], for which the half-inhibitory concentration (IC50) in series [11] turned out to be 800000 nM.

For `CCOC(=O)[C@H]1CCCN(S(=O)(=O)c2ccc(S(=O)(=O)N(CC)CC)cc2)C1`, the IC50 in series [12] came to 9470 nM.

For `CCOC(=O)C1CCCN(S(=O)(=O)c2ccc(S(=O)(=O)N(CC)CC)cc2)C1` (racemic), the IC50 in [12] stood at 580 nM.

For the compound `CCN(CC)S(=O)(=O)c1ccc(S(=O)(=O)N2CCC[C@@H](C(=O)N3CCN(c4nc(C(C)C)no4)CC3)C2)cc1`, the IC50 with MIA PaCa-2 [2] is 50 nM; in the series on MIA PaCa-2 [4], > 10000 nM; in [8], 30.7 nM; in series [9], 8.2 nM. In addition, the results for the t1/2 in series [5] and in series [6] were 1.7 min and 7.7 min, respectively. The Drug metabolism entry in series [13] and in [14] was “Metabolite_Detected” in each case. Also, in the series on MIA PaCa-2 [7], the inhibition result was “inactive”.

In the case of `CC(C)c1noc(N2CCN(C(=O)[C@@H]3CCCN(S(=O)(=O)c4ccc(S(=O)(=O)C5CCC5)cc4)C3)CC2)n1`, the IC50 with MIA PaCa-2 [2] was 70 nM; in the series on MIA PaCa-2 [3] it was 20 nM; in the series on MIA PaCa-2 [4], > 10000 nM; in series [8], 42.6 nM; in [9], 16 nM. Moreover, the inhibition result in the series with MIA PaCa-2 [7] is “inactive”. The outcome in the series on MIA PaCa-2 [15] was Active. The Activity result in series [16] is “Non-Toxic”.

On to `CCOC(=O)[C@@H]1CCCN(S(=O)(=O)c2ccc(S(=O)(=O)N(CC)CC)cc2)C1`, for which the solubility in series [17] is > 200 µM. The concentration for half-maximal inhibition (IC50) was 400 nM in the series with MIA PaCa-2 [2]; 600 nM in the series with BXPC-3; 90 nM in the series on MIA PaCa-2 [3]; > 10000 nM with MIA PaCa-2 [4]; 118 nM in [8]; 312 nM in series [9]. Also, the IC50 in series [12] was 310 nM. Further, the t1/2 in series [5] is on record as 0.64 min; in series [6], 0.7 min. The inhibition entry with MIA PaCa-2 [7] is “inactive”.

By IC50 is commonly meant the concentration that inhibits the measured activity by half. By half-life is commonly meant how long it takes for the measured level to halve. By solubility is commonly meant the dissolved amount per volume that the medium holds.
